Our source for the XC50 values is ChEMBL document CHEMBL1157539, “Thousands of chemical starting points for antimalarial lead identification” (Nature, 2010).

The test deals with Plasmodium falciparum. In words: GSK_TCMDC: Inhibition of Plasmodium falciparum 3D7 in whole erythrocytes, using parasite LDH activity as an index of growth. The test is classed as functional, organism-based. As to conditions: Plasmodium falciparum, 3D7.
Compound `COc1cc2s/c(=N\C(=O)c3cccc([N+](=O)[O-])c3)n(C)c2cc1OC` gave an XC50 of 722 nM.

In the case of `Cc1ccccc1CNc1ccc2nc(N)nc(N)c2c1`, the XC50 stood at 171 nM.

For `N=C(N)c1cccc(-c2cc(-c3cccc(C(=N)N)c3)on2)c1`, the XC50 was 86 nM.

Consider `CC(=O)Nc1cccc(C(=O)Nc2ccc(-c3cccc(-c4nc5cc(C(F)(F)F)ccc5[nH]4)c3)cc2)c1`, for which the XC50 was 148 nM.

`O=C(Nc1cccc(C(F)(F)F)c1)c1cccc(S(=O)(=O)NCC2CCCN2CC2CCCCC2)c1` (configuration not stated) returned an XC50 of 1110 nM.

`COc1ccc2c(NN=Cc3ccccc3F)ccnc2c1`: the XC50 amounted to 213 nM.

`CCNc1cc(C(=O)N[C@@H](Cc2ccccc2)[C@H](O)CNC2(Cc3cccc(Cl)c3)CCC2)cc(N2CCCCS2(=O)=O)c1` gave an XC50 of 1180 nM.

Compound `O=C(Nc1cc(C(F)(F)F)cc(C(F)(F)F)c1)N1CCC(CN2CCC(c3c[nH]c4ccccc34)CC2)CC1` yielded an XC50 of 187 nM.

On to `Brc1cccc(Nc2nccc(Nc3ccc(Oc4ccccc4)cc3)n2)c1`, for which the XC50 turned out to be 1010 nM.

In turn, `CCOc1ccc(OCCCON2C(=N)N=C(N)NC2(C)C)cc1` gave an XC50 of 3.2 nM.

Turning to `CSc1nc2nc(C)c(Cc3cccc(C(F)(F)F)c3)c(C)n2n1`, the XC50 was found to be 193 nM.

With `CCc1cccc2c(C#N)cn(CC(=O)NCCc3ccccc3)c12`, the XC50 worked out at 887 nM.

In turn, `CC(C)(CNCc1ccc(C(F)(F)F)cc1)c1nc(-c2ccc(Cl)c(O)c2)c(-c2ccncc2)[nH]1` returned an XC50 of 734 nM.

`CCC(C)(C)c1ccc(OCCCC(=O)Nc2ccc(Cl)c([N+](=O)[O-])c2)c(C(C)(C)CC)c1` registered an XC50 of 969 nM.

`O=C(NC1CCC(CN2CCC(c3c[nH]c4ccccc34)CC2)CC1)c1[nH]c(=O)[nH]c(=O)c1F` (configuration not stated) yielded an XC50 of 796 nM.

As for `CC(c1cccc(S(=O)(=O)NCc2ccc(Cl)cc2Cl)c1)N1CCC(N2CCCCC2)CC1` (configuration not stated), the XC50 turned out to be 747 nM.

`COc1cccc2c(NN=Cc3ccc(Cl)cc3)ccnc12`: the XC50 turned out to be 814 nM.

As for `CCCc1cc(C(=O)N[C@@H](Cc2ccccc2)[C@H](O)CNC(C)C)c(F)c(N2CCCC2=O)c1`, the XC50 came to 943 nM.

`CC(C)CNC(=O)c1cncc(-c2ccc(CN3CCC(N4CCCC4)CC3)cc2)c1` came in with an XC50 of 689 nM.

`COc1cc2c(cc1OC)CN(CCCCc1ccc(NC(=O)c3cc(Cl)cc(Cl)c3)cc1)CC2`: the XC50 is 1200 nM.

Take `CC(=O)Nc1ccc(CN2CCC(CNC(=O)c3cc(-c4cccc(C(F)(F)F)c4)cs3)C2)cc1` (configuration not stated): the XC50 was found to be 1100 nM.

As to `Cc1cccc2nc(-c3ccc(-c4cccc(CN5CCCC5CN)c4)s3)[nH]c12` (configuration not stated), the XC50 was found to be 867 nM.

Consider `CC(=O)N[C@H](C(=O)Nc1ccc(-c2ccc(-c3nc4cc(C(F)(F)F)ccc4[nH]3)s2)cc1)C(C)C`, for which the XC50 was 1030 nM.

Compound `Cc1cc(C2CCN(CCCCNC(=O)c3ccc(-c4ccc(C(F)(F)F)cc4)cc3)CC2)c(C)cc1OCC(N)=O` registered an XC50 of 805 nM.

`COc1ccc(CN(C)CCOc2ccc(NC(=O)c3cccc4c(=O)cc(-c5ccccc5)[nH]c34)cc2)cc1OC` yielded an XC50 of 921 nM.

For `Cc1nc(N)nc(N)c1-c1ccc(Br)cc1`, the XC50 is 232 nM.

As for `O=S(=O)(/C=C/c1ccccc1)N(Cc1ccc(-c2ccc(CNCCc3ccccc3)cc2)cc1)CC1CCCCN1` (configuration not stated), the XC50 was 794 nM.

`COc1cc2nc(NCCn3cccn3)nc(NCCc3ccccc3)c2cc1OC`: the XC50 stood at 281 nM.

`CN(C)S(=O)(=O)c1ccc(C(=O)N(c2nc(-c3ccccc3)cs2)C2CCCCC2)cc1` showed an XC50 of 760 nM.

In the case of `OCC(c1ccccc1)n1c(COc2ccc(Cl)cc2)nc2c(OCCCN3CCCCC3)cccc21` (configuration not stated), the XC50 is 916 nM.

For the compound `COc1ccccc1NC(=O)c1cc(C(=O)c2cc(Cl)ccc2O)cn(-c2ccccc2OC)c1=O`, the XC50 came to 943 nM.

For the compound `COCCNCc1cccc(-c2cccc(CNC3CCN(Cc4ccccc4)CC3)c2)c1`, the XC50 was 283 nM.

For the compound `CCOc1cc(C(C)C)ccc1C1CCN(CCCCNC(=O)c2ccc(NC(=O)c3ccc(Cl)cc3)cc2)CC1`, the XC50 came to 813 nM.

The compound `CN1CCN(c2ccnc3ccc(NC(=O)Nc4cccc5ccccc45)cc23)CC1` returned an XC50 of 488 nM.

Compound `COc1cccc2sc(N3CCN(C(=O)c4ccc([N+](=O)[O-])o4)CC3)nc12` displayed an XC50 of 869 nM.

`Cc1ccc(-n2c(Cc3cccc4ccccc34)nnc2SCCC#N)c(C)c1` returned an XC50 of 465 nM.

As for `COc1ccc(-c2ncnc(C(F)(F)F)c2-c2ccc(Cl)cc2)c(O)c1`, the XC50 turned out to be 805 nM.

As to `Cc1ccccc1C1CCN(c2ccc(C(=O)Nc3ccc(F)cc3)cn2)CC1`, the XC50 amounted to 194 nM.

`CC(CNC(=N)c1cccc(C(=N)NCC(C)Oc2cccc(C3CCCCC3)c2)n1)Oc1cccc(C2CCCCC2)c1` (configuration not stated) yielded an XC50 of 917 nM.

`Cc1c(Cn2ncc(N3CCC(N)CC3)c(Cl)c2=O)cccc1NC(=O)Nc1ccc(-c2ccccc2)cc1` displayed an XC50 of 697 nM.

In the case of `COc1cc(Nc2ncc3c(C)nc(-c4cc5ccccc5[nH]4)n3n2)cc(OC)c1OC`, the XC50 came to 1020 nM.

For `Cc1onc(-c2c(Cl)cccc2Cl)c1C(=O)N1CCc2cc3nccc(N4CCN5CCC[C@H]5C4)c3cc21`, the XC50 was determined as 768 nM.

For the compound `Cc1cc(N(CCO)CCCN2CCCCC2)nc(Nc2ccc(Cl)cc2)n1`, the XC50 is 547 nM.

The compound `CCN1CCC2(c3cccc(OC)c3)Cc3nc4ccccc4c(-c4ccccc4)c3CC2C1` (configuration not stated) gave an XC50 of 348 nM.

In turn, `O=C(Nc1ccc(Cl)cc1)Nc1ccc(-c2csc(-c3nc4ccccc4[nH]3)c2)cc1` displayed an XC50 of 799 nM.

Turning to `COc1cccc(Cc2cnc3nc(N)nc(N)c3c2C)c1`, the XC50 was determined as 173 nM.

Consider `N#Cc1ccc2c(c1)CCN(CCC1CCC(NC(=O)c3ccc(-c4ccccn4)s3)CC1)CC2` (configuration not stated), for which the XC50 is 1010 nM.

As to `CN(CCCCCNC(=O)/C=C/c1ccc(Cl)c(Cl)c1)CCc1c[nH]c2ccccc12`, the XC50 was 874 nM.

On to `CN1CCN(CCCN(Cc2ccc(-c3cccc(CNCc4ccc5c(c4)OCO5)c3)cc2)C(=O)Nc2ccccc2)CC1`, for which the XC50 amounted to 183 nM.

The compound `COC(=O)c1ccc(C2OC3(C(=O)c4ccccc4C3=O)C(OC)=C2Cl)cc1C(C)=O` (configuration not stated) registered an XC50 of 546 nM.

For `O=C(Nc1ccc(Cl)cc1)NC1CCN(CCCCCNC(=O)C2CC2c2ccc(Cl)c(Cl)c2)CC1` (configuration not stated), the XC50 amounted to 576 nM.

In turn, `O=S(=O)(Nc1cc2c(cc1OCCCN1CCCCC1)CCNCC2)c1ccc(-c2ccc(Cl)cc2)cc1` came in with an XC50 of 1000 nM.

The compound `OC(CN1CCN(C2CCCCC2)CC1)Cn1c2ccccc2c2cc(Br)ccc21` (configuration not stated) showed an XC50 of 857 nM.

With `CN(CCc1ccccc1)c1ncc(-c2ccccc2CNCc2ccccc2O)cn1`, the XC50 is 1020 nM.

Turning to `CC(C)CNCc1ccc(-c2cccc(CNC3CCN(Cc4ccccc4)CC3)c2)cc1`, the XC50 is 239 nM.

`O=C(OCc1ccccc1)N1CCc2c([nH]c3ccccc23)C1CCC(F)(F)F` (configuration not stated) had an XC50 of 425 nM.

Regarding `COCCNCc1ccc(-c2ccc(CN(C(=O)NC3CCCCC3)C3CCN(Cc4ccccc4)CC3)cc2)cc1`, the XC50 was found to be 960 nM.

`O=C(Nc1ccc(-c2cccc(-c3nc4cc(C(F)(F)F)ccc4[nH]3)c2)cc1)c1ccncc1`: the XC50 is 664 nM.

On to `CS(=O)(=O)N(c1ccccc1)c1cc(C(=O)N[C@@H](Cc2ccccc2)[C@H](O)CNC2CCCCC2)cc(N2CCCC2=O)c1`, for which the XC50 came out at 78.1 nM.

The compound `Nc1c2ccccc2nc2ccc(-c3ccccc3)cc12` showed an XC50 of 140 nM.

In turn, `COc1cc(NC(=O)Nc2ccc([N+](=O)[O-])cc2OC)c(OC)cc1Cl` returned an XC50 of 1470 nM.

`CC(C)CC1c2[nH]c3ccccc3c2CCN1C(=O)CCc1ccccc1` (configuration not stated): the XC50 came out at 965 nM.

For `Cc1nc(N)nc(N)c1CCCOc1cccc(Cl)c1`, the XC50 was 476 nM.

`COc1ccc2[nH]ccc(=NN=Cc3ccccc3Cl)c2c1` gave an XC50 of 664 nM.

With `O=c1cc(NCCCNC2CCOc3c(Cl)cc(Cl)cc32)[nH]c2ccccc12` (configuration not stated), the XC50 came to 724 nM.

For the compound `CN1CCCC1CCNC(=O)[C@H](CC1CCCCC1)NC(=O)c1ccc(O)c(-c2ccc(Cl)c(Cl)c2)c1` (some centres not stated), the XC50 was determined as 736 nM.

`COCCn1c(C)nc2ccccc2c1=O` showed an XC50 of 1460 nM.

The compound `CCN(CC)c1ccc2nc(N)nc(N)c2c1Cl` showed an XC50 of 30.9 nM.

On to `COc1c(Br)cc(Br)cc1C(C)=O`, for which the XC50 was 989 nM.

As to `Cc1noc(C)c1-c1cccc(CNCc2cccc(-c3ccc(-c4nc5ccccc5[nH]4)cc3)c2)c1`, the XC50 was 228 nM.

Compound `O=C(Nc1cccc(-c2ccc(-c3nc4cc(C(F)(F)F)ccc4[nH]3)s2)c1)c1c[nH]cn1` gave an XC50 of 1110 nM.

`CCN(CC)CCCC(C)Nc1c2ccccc2nc2ccc3ccccc3c12` (configuration not stated): the XC50 turned out to be 1040 nM.

As for `COc1cc(C(=O)NC2CCc3ccccc32)cc(Cl)c1OC` (configuration not stated), the XC50 came out at 1100 nM.

On to `c1ccc(CN2CCN(CCCCNc3c4ccccc4nc4ccccc34)CC2)cc1`, for which the XC50 was 117 nM.

As for `O=C(Nc1ccc(Oc2ccccc2)cc1)N(CCN1CCCC1)Cc1ccc(-c2ccc(CN3CCNCC3)cc2)cc1`, the XC50 came out at 892 nM.

Consider `OCc1ccc2nc3c(cc2c1)-c1cccc2cccc-3c12`, for which the XC50 came out at 664 nM.

For `O=C(NC12CC3CC(CC(C3)C1)C2)C(=O)c1c[nH]c2ccccc12`, the XC50 worked out at 232 nM.

`Cc1cccc2nc(-c3ccc(-c4cccc(CNCCc5ccncc5)c4)s3)[nH]c12` had an XC50 of 138 nM.

For `N#Cc1c(N2CCCCCC2)nc(N)c2c(N)nc3c(c12)CC(=O)N3c1ccc(F)cc1`, the XC50 stood at 213 nM.

In turn, `OC(c1ccccc1)C1CN(CCC2CC3CCC2C3)CCC1(O)c1ccccc1` (configuration not stated) displayed an XC50 of 346 nM.

Compound `O=C(NC1CCCCC1)N(Cc1ccc(-c2ccc(CNC3CCCC3)cc2)cc1)C1CCN(Cc2ccccc2)CC1` gave an XC50 of 780 nM.

Compound `CCc1cn(C)c2c(N3CCCC3=O)cc(C(=O)N[C@@H](Cc3ccccc3)[C@H](O)CNC3CCCCC3)cc12` showed an XC50 of 118 nM.

Regarding `Fc1ccc2nc(Nc3nc(-c4ccccn4)cs3)sc2c1`, the XC50 turned out to be 560 nM.

For `COc1cc(NCC(CN)Cc2ccc3c(c2)OCO3)nc2ccccc12` (configuration not stated), the XC50 is 820 nM.

On to `O=C(c1cc(C(=O)NCc2ccc(Cl)cc2)c(=O)n(Cc2ccc(Cl)cc2)c1)c1cc(F)ccc1O`, for which the XC50 came to 949 nM.

In turn, `Cc1ccc(NC(=O)c2ccc(NCCCN(C)Cc3ccccc3)c([N+](=O)[O-])c2)cc1F` yielded an XC50 of 701 nM.

`c1ccc(CNCCn2c(-c3ccc4c(c3)CCO4)nc3c(N4CCCC4)cccc32)cc1` returned an XC50 of 1130 nM.
